Data on 4 molecules can be found in PMC12501849, “Design, synthesis and evaluation of arylpurine-based sinefungin mimetics as zika virus methyltransferase inhibitors” (RSC Advances, 2025).

Series [1] concerns ZIKV MR766. The experiment in a line: Antiviral assay against ZIKV in SH-SY5Y cells (CPE, MTS readout). Type of series: cell-based, zika virus. The note with it: for EC50: Zika virus, 168 h, SH-SY5Y cells, ZIKV MR766, MOI 0.01, 7-day incubation. As to the method: (§1) These compounds were next evaluated for their antiviral effect on ZIKV replication in Vero E6 and SH-SY5Y cells. 7-Deaza-2′-C-methyladenosine (7DMA), a viral polymerase inhibitor,[35] was included as a positive control.
Besides the standard assays in VeroE6 cells, the compounds were also tested in SH-SY5Y cells. […] Thus, they function as a relevant neuronal cell-based model of ZIKV infection.[38]
(§2) Assessment of the antiviral activity against ZIKV in VeroE6 cells (African green monkey kidney cells; Vero 76, clone E6; ATCC: Cat# CRL-1586) was done as previously described.[35] The antiviral assays in the neuroblastoma SH-SY5Y cells (CRL-2266; ATCC) were conducted as follows: SH-SY5Y cells were seeded in assay medium (MEM supplemented with 2% fetal bovine serum, 2 mM L-glutamine and 0.075% sodium bicarbonate; all from Thermo Fisher Scientific) at a density of 15 000 cells/well in 96-well plates. Cells were incubated overnight at 37 °C and 5% CO2. The next day, a serial dilution of the compounds was added to the cells, followed by inoculation of the cells with ZIKV MR766 (MOI = 0.01). Following a 7-day incubation at 37 °C and 5% CO2, ZIKV-induced cytopathic effect was determined by means of the MTS readout method, analogous to the assay with the VeroE6 cells.[35] The 50% effective concentration (the compound concentration that is required to inhibit virus-induced CPE by 50%; EC50) and the 50% cytotoxic concentration (i.e. the compound concentration that is required to inhibit the cell growth by 50%; CC50) was determined using logarithmic interpolation.

The nature of series [2]: Cytotoxicity in non-infected VeroE6 cells. The note with it: African green monkey, non-infected, 50% cytotoxic concentration. Type of series: cell-based, African green monkey. As to the method:
as §2

In series [3] the test system is VeroE6 cells. The experiment in a line: Cytotoxicity in non-infected VeroE6 cells. The class given is cell-based, African green monkey. As for the experimental part:
as §2

The nature of series [4]: Cytotoxicity in non-infected SH-SY5Y cells. The conditions noted are these: human, SH-SY5Y neuroblastoma cells, 50% cytotoxic concentration. The class given is cell-based. As for the experimental part: as §2
Series [5] concerns the target T1, DENV3 MTase (Dengue virus type 3, UniProt P27915).
T1 construct: the MTase activity is located at the N-terminal of the viral NS5 protein; made in house
The experiment in a line: Filter binding assay (FBA), DENV3 2′-O-MTase activity. The note with it: for inhibition at 50 µM: 2′-O-MTase activity, compound at 50 μM, read-out: Percentage of inhibition of DENV3 MTase; for Effect on 2′-O-MTase activity of DENV3 (in words): tested at 50 μM. Type of series: biochemical. As for the experimental part:
(§3) The synthesized arylpurines were evaluated for their inhibitory activity against the 2′-O-MTase activity of ZIKV and DENV3 MTases by quantification of [^3H]-methyl transfer from the [^3H]-SAM on short synthetic capped RNA (GpppAC4), by using a filter binding assay (FBA).[13,33] The universal methyltransferase inhibitor sinefungin was included as a positive control (Table 1), whose IC50 value against ZIKV MTase has already been reported using a similar assay.[13] We assessed MTase inhibition by testing the synthesized compounds at a concentration of 50 μM.
(§4) Proteins were produced and purified as previously described.[13] Briefly, the coding sequence of ZIKV NS5 (aa 4-903) and the ZIKV NS5 MTase (aa 4-278) domain were synthesized (Genscript) based on the sequence of the ZIKV strain H/PF/2013 (GenBank accession no. KJ776791.2) and then cloned into a pQE30 (Qiagen) plasmid with an N-terminal His6 tag. The MTase domains (aa 4-278 and aa 1-264) were produced in Escherichia coli T7 Express Iq (New England BioLabs). Cells were grown in Terrific Broth at 37 °C until the optical density at 600 nm (OD600) reached 0.6. Protein expression was then induced by 0.5 mM IPTG (isopropyl-β-D-thiogalactopyranoside) at 17 °C overnight. Bacteria were harvested by centrifugation. The bacterial pellets from a 2-liter bacterial culture were resuspended in 100 ml lysis buffer (50 mM Tris–HCl [pH 8], 300 mM NaCl, 5% glycerol, 0.1% Triton, 10 μg per ml DNase I, 2 tablets of EDTA-free antiprotease cocktail [Roche], 0.25 mg per ml lysozyme). After 30 min of incubation at 4 °C, cells were sonicated and clarified by centrifugation prior to immobilized metal affinity chromatography (IMAC) purification on a 5-mL His prep column (GE Healthcare), with elution in 50 mM Tris–HCl, 300 mM NaCl, and 250 mM imidazole (pH 8.0). The eluted protein was then loaded on a 16/60 Superdex 200 (GE Healthcare) equilibrated in a mixture of 10 mM HEPES, 500 mM NaCl, glycerol 5%, and 1 mM dithiothreitol (DTT [pH 7.5]).
(§5) The FBA MTase assay was carried out in a reaction mixture [40 mM Tris–HCl (pH 8.0), 1 mM DTT, 1.9 μM SAM, and 0.1 μM ^3H-SAM (PerkinElmer)] in the presence of 0.7 μM GpppAC4 synthetic RNA and the MTase (500 nM), according to the method previously described.[39] Briefly, the MTase was first mixed with the compound suspended in DMSO (5% final DMSO) before the addition of RNA substrate and SAM and then incubated at 30 °C. Reactions mixtures were stopped after 30 min by their 10-fold dilution in ice-cold water. Samples were transferred to diethylaminoethyl (DEAE) filtermat (PerkinElmer) using a Filtermat Harvester (Packard Instruments). The RNA-retaining mats were washed twice with 10 mM ammonium formate pH 8.0, twice with water and once with ethanol. They were soaked with scintillation fluid (PerkinElmer), and ^3H-methyl transfer to the RNA substrates was determined using a Wallac MicroBeta TriLux liquid scintillation counter (PerkinElmer).

Series [6] has as its system ZIKV. The experiment in a line: Antiviral assay against ZIKV in VeroE6 cells (CPE, MTS readout). The class given is cell-based, zika virus. The conditions noted are these: for EC50: concentration that protects 50% of the cells from virus-induced cytopathic effect; for Antiviral activity against ZIKV (in words): cell-based assay. As to the method:
as §1, §2
On the technique in general: Protection from cytopathic effect is a common read-out in antiviral testing.

Series [7] concerns the target T2, ZIKV MTase (Zika virus, UniProt A0A024B7W1).
T2 construct: the ZIKV NS5 MTase (aa 4-278) domain were synthesized (Genscript); His6 (N); made in house; host or cells: Escherichia coli T7 Express Iq
The experiment in a line: Filter binding assay (FBA), ZIKV 2′-O-MTase activity. The class given is biochemical. The conditions noted are these: for inhibition at 50 µM: 2′-O-MTase activity, compound at 50 μM, read-out: Percentage of inhibition of ZIKV MTase; for Effect on 2′-O-MTase activity of ZIKV (in words): tested at 50 μM. As to the method:
as §3, §4, §5

The nature of series [8]: Stability towards spontaneous cyclization in PBS : DMSO followed by HPLC. The conditions noted are these: PBS : DMSO (95 : 5), HPLC over a 24-hour period. Type of series: physicochemical. As to the method: Then, compound 28 was treated with TFA at 70 °C to remove the tert-butyl ester and the p-methoxybenzyl group. Analysis of the reaction by HPLC/MS after 1 h indicated a mixture of two compounds with m/z = 695 and m/z = 575, that might correspond to cyclized products with and without the p-methoxybenzyl group at position 6 (see Fig. S3 at the SI). […] In exploring alternative methods for removing the PMB group, we came across a report by Sako et al., which described the oxidative debenzylation of 6-N-benzyladenosines under neutral pH conditions.[32] Since our compounds are more lipophilic than the nucleosides described by […], we changed the PBS : CH3CN ratio from 2 : 1, as described, to 1 : 1 to favor the solubility of our compounds. Additionally, we used microwave irradiation to shorten the reaction times. Thus, treatment of 27 with […] in PBS : CH3CN (1 : 1) at 80 °C for 45 min under MW irradiation led to the removal of the p-methoxybenzyl group, as detected by HPLC/MS. Further treatment of the reaction product with piperidine afforded 29 (25% yield over the 2 steps). A similar reaction sequence applied to 28 led to compound 30 (21% yield). […] Finally, treatment of 29 and 30 with TFA in DCM at rt afforded compounds 31 and 32 in 73% and 62% yields, respectively. To rule out the possibility of spontaneous cyclization following removal of both protecting groups from the amino acid, compounds 21, 31 and 32 were dissolved in a PBS : DMSO (95 : 5) mixture.

Series [9] concerns the target T1, DENV3 MTase. Also noted: method as in PMID 28031359. The note with it: cited from earlier work.
Series [10] concerns the target T2, ZIKV MTase. Also noted: method as in PMID 28031359. The conditions noted are these: cited from earlier work.
On the set-up of series [11]: method as in PMID 30170321. The conditions noted are these: cited from earlier work.
Setting [12] is: Zika virus, Vero C1008, VeroE6 cells.

“Also recorded” adds a separate entry of the source.

T2 sequence (A0A024B7W1 2524-2798): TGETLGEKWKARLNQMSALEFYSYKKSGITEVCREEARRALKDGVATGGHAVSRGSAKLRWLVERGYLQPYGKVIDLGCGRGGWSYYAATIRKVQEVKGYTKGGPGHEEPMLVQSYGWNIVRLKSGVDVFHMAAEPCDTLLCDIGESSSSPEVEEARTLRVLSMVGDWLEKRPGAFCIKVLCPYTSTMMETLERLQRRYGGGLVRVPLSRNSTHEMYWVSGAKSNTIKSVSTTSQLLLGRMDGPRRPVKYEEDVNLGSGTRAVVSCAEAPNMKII
T1 sequence (P27915 2492-2753): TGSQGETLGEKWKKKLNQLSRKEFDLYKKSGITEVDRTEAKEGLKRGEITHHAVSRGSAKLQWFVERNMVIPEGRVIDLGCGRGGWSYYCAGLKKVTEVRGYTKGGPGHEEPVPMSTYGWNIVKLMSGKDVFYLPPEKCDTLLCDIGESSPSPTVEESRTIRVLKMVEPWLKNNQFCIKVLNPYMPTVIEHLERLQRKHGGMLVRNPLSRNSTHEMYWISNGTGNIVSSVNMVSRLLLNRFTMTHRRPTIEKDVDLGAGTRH

With `Cc1ncnc2c1ccn2-c1cccc(N(CC[C@H](N)C(N)=O)CCC(C)(C)C)c1` [Compound 18, (S)-2-Amino-4-((3,3-dimethylbutyl)(3-(4-methyl-7H-pyrrolo[2,3-d]pyrimidin-7-yl)phenyl)amino) butanamide], the EC50 – broadly, the concentration needed to bring the measured effect to its halfway point – in series [1] was greater than 100 µM; in series [6] (VeroE6 cells), 27.2 ± 0.2 µM; in series [6] (setting [12]) it was 27 µM. For the same molecule, in series [1] (neuroblastoma SH-SY5Y cells), the “Antiviral activity against ZIKV in SH-SY5Y cells (in words)” value was “not confirmed”. Also, in series [2], the cytotoxic concentration (CC50) – broadly, the concentration that lowers cell viability or growth by half – is 66.2 ± 3.9 µM. For the same molecule, the “CC50 relative to EC50 (fold higher)” value in series [3] was roughly 3 fold. The same molecule returned a CC50 at 7 days in series [4] of 61 µM. Moreover, the inhibition (commonly the change of the read-out against control, counted positive when it falls) at 50 µM in [5] turned out to be 10.1%; in series [7] it was 10.8%. In addition, the “Effect on 2′-O-MTase activity of DENV3 (in words)” value (from here on “Effect … of DENV3 (in words)”) in series [5] was “modest inhibition”. The IC50 (commonly the concentration that gives 50% inhibition) in series [6] (Zika virus, Vero C1008, Vero E6 cells, read-out: IC50 (antiviral activity in cell culture)) was 27.2 ± 0.2 µM. Moreover, the “Antiviral activity against ZIKV (in words)” value in series [6] is on record as “modest antiviral activity”. Besides, in series [7], the “Effect on 2′-O-MTase activity of ZIKV (in words)” value (shortened to “Effect … of ZIKV (in words)”) is “inhibited; also recorded: modest inhibition”.

In the case of `Nc1ncnc2c1ncn2-c1cccc(NC(=O)C[C@H](N)C(=O)O)c1` [Compound 31, N ^4-(3-(6-Amino-9H-purin-9-yl)phenyl)-L-asparagine], in series [8], the “Stability (no spontaneous cyclization)” value was “remained intact”. Also, the EC50 in series [1] is greater than 100 µM. This molecule registered a CC50 in series [2] greater than 100 µM. The same molecule displayed a CC50 at 7 days in series [4] greater than 100 µM. Moreover, in [5], the inhibition at 50 µM was roughly 20% and the “Effect … of DENV3 (in words)” value is recorded as “some inhibition”. The molecule further registered a half-maximal effective concentration (EC50) in [6] (setting [12]) greater than 100 µM. In [6], the “Antiviral activity against ZIKV (in words)” value is “no antiviral activity”. Moreover, in [7], the inhibition at 50 µM is roughly 20% and the “Effect … of ZIKV (in words)” value is listed as “inhibited; also recorded: some inhibition”.

Take `COc1ccc(NC(=O)C[C@H](N)C(=O)O)cc1-n1cnc2c(N)ncnc21` [Compound 32, N ^4-(3-(6-Amino-9H-purin-9-yl)-4-methoxyphenyl)-L-asparagine]: the “Stability (no spontaneous cyclization)” value in series [8] is reported as “remained intact”. Also, the EC50 in series [1] and in [6] (setting [12]) was greater than 100 µM throughout. In addition, in [2], the CC50 was greater than 100 µM. This molecule also showed a CC50 at 7 days in series [4] greater than 100 µM. Also, the inhibition at 50 µM in series [5] and in series [7] was 0% in each case. Also, the “Effect … of DENV3 (in words)” value in [5] is given as “no effect”. Besides, the “Effect … of ZIKV (in words)” value in series [7] is “no effect”.

As for `Nc1ncnc2c1ncn2[C@@H]1O[C@H](C[C@@H](N)CC[C@H](N)C(=O)O)[C@@H](O)[C@H]1O` [Sinefungin], in series [9], the “DENV MTase inhibition (in words)” value is recorded as “potent”. In series [10], the “ZIKV MTase inhibition (in words)” value is reported as “potent”. For the same molecule, in series [11], the “Antiviral activity in cell culture (in words)” value is listed as “lack of antiviral activity”. In addition, the inhibition at 50 µM in series [5] worked out at 96.8%; in series [7] it was 97.9%.
